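The compound was tested at five concentrations on cells cultured in 96-well plates, with a 48-hour exposure period. Abbreviation: GI50, concentration required for 50% inhibition of growth. The concentration for full growth arrest is given as TGI.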
Tests used:
Assay in all cases: NCI anticancer screen, dose series, 48 h
786-0 renal = system: 786-0 renal
A549 NSCLC = system: A549 NSCLC
ACHN renal = system: ACHN renal
BT-549 breast = system: BT-549 breast
CAKI-1 renal = system: CAKI-1 renal
CCRF-CEM leukemia = system: CCRF-CEM leukemia
COLO 205 colon = system: COLO 205 colon
DU-145 prostate = system: DU-145 prostate
EKVX NSCLC = system: EKVX NSCLC
HCC-2998 colon = system: HCC-2998 colon
HCT-116 colon = system: HCT-116 colon
HOP-62 NSCLC = system: HOP-62 NSCLC
HS 578T breast = system: HS 578T breast
HT29 colon = system: HT29 colon
IGROV1 ovarian = system: IGROV1 ovarian
K-562 leukemia = system: K-562 leukemia
KM12 colon = system: KM12 colon
LOX IMVI melanoma = system: LOX IMVI melanoma
M14 melanoma = system: M14 melanoma
MALME-3M melanoma = system: MALME-3M melanoma
MCF7 breast = system: MCF7 breast
MDA-MB-231 breast = system: MDA-MB-231 breast
MOLT-4 leukemia = system: MOLT-4 leukemia
NCI-H226 lung = system: NCI-H226 lung
NCI-H23 lung = system: NCI-H23 lung
NCI-H460 lung = system: NCI-H460 lung
NCI-H522 lung = system: NCI-H522 lung
NCI/ADR-RES ovarian = system: NCI/ADR-RES ovarian
OVCAR-3 ovarian = system: OVCAR-3 ovarian
OVCAR-4 ovarian = system: OVCAR-4 ovarian
OVCAR-5 ovarian = system: OVCAR-5 ovarian
OVCAR-8 ovarian = system: OVCAR-8 ovarian
PC-3 prostate = system: PC-3 prostate
RPMI-8226 leukemia = system: RPMI-8226 leukemia
SF-268 CNS = system: SF-268 CNS
SF-539 CNS = system: SF-539 CNS
SK-MEL-2 melanoma = system: SK-MEL-2 melanoma
SK-MEL-28 melanoma = system: SK-MEL-28 melanoma
SK-MEL-5 melanoma = system: SK-MEL-5 melanoma
SK-OV-3 ovarian = system: SK-OV-3 ovarian
SN12C renal = system: SN12C renal
SNB-19 CNS = system: SNB-19 CNS
SR leukemia = system: SR leukemia
SW-620 colon = system: SW-620 colon
T-47D breast = system: T-47D breast
TK-10 renal = system: TK-10 renal
U251 CNS = system: U251 CNS
UACC-257 melanoma = system: UACC-257 melanoma
UACC-62 melanoma = system: UACC-62 melanoma
UO-31 renal = system: UO-31 renal
HCT-15 colon = system: HCT-15 colon
HL-60(TB) leukemia = system: HL-60(TB) leukemia
HOP-92 NSCLC = system: HOP-92 NSCLC
MDA-MB-435 = system: MDA-MB-435
RXF 393 renal = system: RXF 393 renal
SF-295 CNS = system: SF-295 CNS
SNB-75 CNS = system: SNB-75 CNS

CCOC(=O)C1=C(C)NC(c2ccco2)=C(C#N)C1c1cccc([N+](=O)[O-])c1 (centres undefined)
GI50 (786-0 renal): 0.0104 µM | TGI (786-0 renal): 13.5 µM | GI50 (A549 NSCLC): 0.0293 µM | TGI (ACHN renal): 45.7 µM | GI50 (BT-549 breast): 0.153 µM | TGI (BT-549 breast): 18 µM | GI50 (CAKI-1 renal): 0.0223 µM | TGI (CAKI-1 renal): 58.4 µM | GI50 (CCRF-CEM leukemia): 0.0186 µM | TGI (CCRF-CEM leukemia): 32.4 µM | GI50 (COLO 205 colon): 0.0149 µM | TGI (COLO 205 colon): 0.039 µM | GI50 (DU-145 prostate): 0.0316 µM | TGI (DU-145 prostate): 4.02 µM | GI50 (EKVX NSCLC): 0.0263 µM | TGI (EKVX NSCLC): 88.6 µM | GI50 (HCC-2998 colon): 0.0558 µM | TGI (HCC-2998 colon): 0.159 µM | TGI (HCT-116 colon): 4.17 µM | GI50 (HOP-62 NSCLC): 0.0174 µM | TGI (HOP-62 NSCLC): 17.2 µM | TGI (HS 578T breast): 0.0885 µM | GI50 (HT29 colon): 0.01 µM | TGI (HT29 colon): 0.562 µM | GI50 (IGROV1 ovarian): 0.0157 µM | TGI (IGROV1 ovarian): 3.28 µM | GI50 (K-562 leukemia): 0.0194 µM | GI50 (KM12 colon): 0.035 µM | TGI (KM12 colon): 16 µM | GI50 (LOX IMVI melanoma): 0.0587 µM | TGI (LOX IMVI melanoma): 11.9 µM | GI50 (M14 melanoma): 0.0132 µM | TGI (M14 melanoma): 3.28 µM | TGI (MALME-3M melanoma): 23.6 µM | GI50 (MCF7 breast): 0.0339 µM | TGI (MCF7 breast): 20.8 µM | GI50 (MDA-MB-231 breast): 0.0443 µM | TGI (MDA-MB-231 breast): 4.53 µM | GI50 (MOLT-4 leukemia): 0.0445 µM | GI50 (NCI-H226 lung): 0.0137 µM | TGI (NCI-H226 lung): 3.43 µM | GI50 (NCI-H23 lung): 0.0251 µM | TGI (NCI-H23 lung): 0.0947 µM | GI50 (NCI-H460 lung): 0.0633 µM | TGI (NCI-H460 lung): 0.432 µM | TGI (NCI-H522 lung): 0.0371 µM | TGI (NCI/ADR-RES ovarian): 0.356 µM | GI50 (OVCAR-3 ovarian): 0.0147 µM | TGI (OVCAR-3 ovarian): 0.0373 µM | GI50 (OVCAR-4 ovarian): 4.53 µM | TGI (OVCAR-4 ovarian): 74.8 µM | GI50 (OVCAR-5 ovarian): 0.0331 µM | TGI (OVCAR-5 ovarian): 99.5 µM | GI50 (OVCAR-8 ovarian): 0.0149 µM | TGI (OVCAR-8 ovarian): 13.9 µM | TGI (PC-3 prostate): 0.0554 µM | GI50 (RPMI-8226 leukemia): 0.0658 µM | GI50 (SF-268 CNS): 0.0783 µM | TGI (SF-268 CNS): 41.4 µM | TGI (SF-539 CNS): 0.0128 µM | GI50 (SK-MEL-2 melanoma): 0.0115 µM | TGI (SK-MEL-2 melanoma): 24.3 µM | GI50 (SK-MEL-28 melanoma): 0.0105 µM | TGI (SK-MEL-28 melanoma): 22.5 µM | TGI (SK-MEL-5 melanoma): 0.311 µM | GI50 (SK-OV-3 ovarian): 0.738 µM | TGI (SK-OV-3 ovarian): 70.9 µM | GI50 (SN12C renal): 0.0465 µM | TGI (SN12C renal): 19.7 µM | GI50 (SNB-19 CNS): 0.0253 µM | GI50 (SR leukemia): 0.0416 µM | TGI (SR leukemia): 17.5 µM | GI50 (SW-620 colon): 0.0101 µM | TGI (SW-620 colon): 1.73 µM | GI50 (T-47D breast): 20.9 µM | GI50 (TK-10 renal): 3.06 µM | TGI (TK-10 renal): 49.4 µM | GI50 (U251 CNS): 0.0134 µM | TGI (U251 CNS): 0.059 µM | GI50 (UACC-257 melanoma): 0.0882 µM | TGI (UACC-257 melanoma): 26.2 µM | TGI (UACC-62 melanoma): 2.27 µM | GI50 (UO-31 renal): 0.14 µM | TGI (UO-31 renal): 27.9 µM

COc1ccc2nc3cc(Cl)ccc3c(Nc3cc(CN4CCCC4)c(O)c(CN4CCCC4)c3)c2n1
GI50 (786-0 renal): 1.87 µM | TGI (786-0 renal): 11.4 µM | GI50 (A549 NSCLC): 1.29 µM | TGI (A549 NSCLC): 22 µM | GI50 (ACHN renal): 1.69 µM | TGI (ACHN renal): 10.3 µM | GI50 (BT-549 breast): 2.46 µM | TGI (BT-549 breast): 5.66 µM | GI50 (CAKI-1 renal): 2.37 µM | TGI (CAKI-1 renal): 8.44 µM | GI50 (CCRF-CEM leukemia): 1.12 µM | TGI (CCRF-CEM leukemia): 4.03 µM | GI50 (COLO 205 colon): 1.18 µM | TGI (COLO 205 colon): 2.48 µM | GI50 (DU-145 prostate): 2.43 µM | TGI (DU-145 prostate): 13.6 µM | GI50 (EKVX NSCLC): 2.34 µM | TGI (EKVX NSCLC): 9.68 µM | GI50 (HCC-2998 colon): 1.25 µM | TGI (HCC-2998 colon): 2.91 µM | GI50 (HCT-116 colon): 1.04 µM | TGI (HCT-116 colon): 5.83 µM | GI50 (HCT-15 colon): 1.18 µM | TGI (HCT-15 colon): 10.6 µM | GI50 (HL-60(TB) leukemia): 2.07 µM | TGI (HL-60(TB) leukemia): 4.78 µM | GI50 (HOP-62 NSCLC): 1.38 µM | TGI (HOP-62 NSCLC): 4.91 µM | GI50 (HOP-92 NSCLC): 1.04 µM | TGI (HOP-92 NSCLC): 3.74 µM | GI50 (HT29 colon): 1.42 µM | TGI (HT29 colon): 10.5 µM | GI50 (IGROV1 ovarian): 2.51 µM | TGI (IGROV1 ovarian): 13.6 µM | GI50 (KM12 colon): 1.66 µM | TGI (KM12 colon): 10.9 µM | GI50 (LOX IMVI melanoma): 1.4 µM | TGI (LOX IMVI melanoma): 5.09 µM | GI50 (M14 melanoma): 1.62 µM | TGI (M14 melanoma): 2.97 µM | GI50 (MALME-3M melanoma): 1.83 µM | TGI (MALME-3M melanoma): 3.32 µM | GI50 (MCF7 breast): 1 µM | TGI (MCF7 breast): 8.34 µM | GI50 (MDA-MB-231 breast): 1.86 µM | TGI (MDA-MB-231 breast): 8.17 µM | GI50 (MDA-MB-435): 1.6 µM | TGI (MDA-MB-435): 3.07 µM | GI50 (MOLT-4 leukemia): 0.41 µM | TGI (MOLT-4 leukemia): 2.51 µM | GI50 (NCI-H226 lung): 1.55 µM | TGI (NCI-H226 lung): 3.24 µM | GI50 (NCI-H23 lung): 1.72 µM | TGI (NCI-H23 lung): 3.88 µM | GI50 (NCI-H460 lung): 0.638 µM | TGI (NCI-H460 lung): 2.49 µM | GI50 (NCI-H522 lung): 1.47 µM | TGI (NCI-H522 lung): 3.14 µM | GI50 (NCI/ADR-RES ovarian): 1.64 µM | TGI (NCI/ADR-RES ovarian): 6.51 µM | GI50 (OVCAR-3 ovarian): 3.07 µM | TGI (OVCAR-3 ovarian): 14.7 µM | GI50 (OVCAR-4 ovarian): 1.12 µM | TGI (OVCAR-4 ovarian): 4.72 µM | GI50 (OVCAR-5 ovarian): 2.66 µM | TGI (OVCAR-5 ovarian): 11.9 µM | GI50 (OVCAR-8 ovarian): 0.748 µM | TGI (OVCAR-8 ovarian): 13.3 µM | GI50 (PC-3 prostate): 1.53 µM | TGI (PC-3 prostate): 6.52 µM | GI50 (RPMI-8226 leukemia): 2.1 µM | TGI (RPMI-8226 leukemia): 5.7 µM | GI50 (RXF 393 renal): 1.25 µM | TGI (RXF 393 renal): 3.05 µM | GI50 (SF-268 CNS): 1.28 µM | TGI (SF-268 CNS): 3.55 µM | GI50 (SF-295 CNS): 2 µM | TGI (SF-295 CNS): 6.51 µM | GI50 (SF-539 CNS): 1.89 µM | TGI (SF-539 CNS): 3.88 µM | GI50 (SK-MEL-2 melanoma): 1.73 µM | TGI (SK-MEL-2 melanoma): 3.26 µM | GI50 (SK-MEL-28 melanoma): 2.15 µM | TGI (SK-MEL-28 melanoma): 4.5 µM | GI50 (SK-MEL-5 melanoma): 1.56 µM | TGI (SK-MEL-5 melanoma): 2.9 µM | GI50 (SK-OV-3 ovarian): 2.92 µM | TGI (SK-OV-3 ovarian): 15.5 µM | GI50 (SN12C renal): 1.35 µM | TGI (SN12C renal): 10.8 µM | GI50 (SNB-19 CNS): 1.84 µM | TGI (SNB-19 CNS): 10.7 µM | GI50 (SNB-75 CNS): 1.38 µM | TGI (SNB-75 CNS): 2.7 µM | GI50 (SR leukemia): 0.902 µM | TGI (SR leukemia): 3.14 µM | GI50 (SW-620 colon): 0.629 µM | TGI (SW-620 colon): 4.95 µM | GI50 (T-47D breast): 2.74 µM | TGI (T-47D breast): 9.55 µM | GI50 (TK-10 renal): 5.69 µM | TGI (TK-10 renal): 66.3 µM | GI50 (U251 CNS): 2.21 µM | TGI (U251 CNS): 11.5 µM | GI50 (UACC-257 melanoma): 1.71 µM | TGI (UACC-257 melanoma): 3.26 µM | GI50 (UACC-62 melanoma): 1.74 µM | TGI (UACC-62 melanoma): 3.56 µM | GI50 (UO-31 renal): 1.44 µM | TGI (UO-31 renal): 12.7 µM

Reference: PubChem BioAssay (NCI)
